# Data as given in patent US20030187056A1, “Live cell procedures to identify to identify compounds modulating intracellular distribution of phosphodiesterase( pde) enzymes” (priority 2000, published 2003).
# Target: T1, HSPDE4A4-EGFP (Homo sapiens, UniProt P27815)
# T1 construct: expressed in transfected cells
# Experiment: Spot formation in CHO cells transfected with HSPDE4A4-EGFP
# Type: cell-based
# Details: for cells with spots: clonal
# T1 sequence (P27815 whole entry): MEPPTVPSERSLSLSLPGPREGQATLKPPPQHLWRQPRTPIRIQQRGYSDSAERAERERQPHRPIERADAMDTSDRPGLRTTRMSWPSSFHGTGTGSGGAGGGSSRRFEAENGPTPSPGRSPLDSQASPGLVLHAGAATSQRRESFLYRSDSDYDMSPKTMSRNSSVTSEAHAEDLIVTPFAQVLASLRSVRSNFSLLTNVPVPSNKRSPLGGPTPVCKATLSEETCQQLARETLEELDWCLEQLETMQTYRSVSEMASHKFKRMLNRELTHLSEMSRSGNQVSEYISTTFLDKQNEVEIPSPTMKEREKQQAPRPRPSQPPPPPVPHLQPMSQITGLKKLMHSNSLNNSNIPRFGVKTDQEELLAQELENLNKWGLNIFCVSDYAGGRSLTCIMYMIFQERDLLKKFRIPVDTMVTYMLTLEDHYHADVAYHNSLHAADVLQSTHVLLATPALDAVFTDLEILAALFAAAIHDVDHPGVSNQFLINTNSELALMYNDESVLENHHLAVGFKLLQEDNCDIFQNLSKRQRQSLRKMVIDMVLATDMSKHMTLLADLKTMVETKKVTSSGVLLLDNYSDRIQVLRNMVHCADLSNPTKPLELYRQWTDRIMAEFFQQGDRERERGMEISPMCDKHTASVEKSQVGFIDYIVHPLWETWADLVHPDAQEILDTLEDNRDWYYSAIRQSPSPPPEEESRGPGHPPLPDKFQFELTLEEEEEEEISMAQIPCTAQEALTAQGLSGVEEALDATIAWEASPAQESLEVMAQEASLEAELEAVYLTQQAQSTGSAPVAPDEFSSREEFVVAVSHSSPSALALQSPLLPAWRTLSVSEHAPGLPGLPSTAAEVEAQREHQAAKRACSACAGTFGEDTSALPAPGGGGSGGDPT
compound,measurement,setting,value
O=c1c2cccnc2n(-c2cccc([N+](=O)[O-])c2)c(=O)n1Cc1ccncc1 [RS25344],cells with spots,"0.03 μM RS25344, 24.5 hours",about 40%
same,cells with spots,"0.03 μM RS25344, 24.5 hours, listed as RS 25344",approximately 40%
same,cells with spots,"1 μM RS25344, 24.5 hours",more than 95%
same,EC50,"clonal CHO, 23.5 hours, 4-parameter Hill fit, read-out: EC50 spot formation (spots per cell)",0.017 µM
same,Formation of PDE4A4 spots,yes/no,yes
